Active and inactive are the calls of the source. No cut-off for these calls is given here.
Legend:
[1] = tested on: MDA-MB-231; assay: Antiproliferative activity against human MDA-MB-231 cells assessed as inhibition of cell viability after 48 hrs by MTT assay; format: functional, cell-based; conditions: MDA-MB-231, 48 h
[2] = target: Signal transducer and activator of transcription 3 (Homo sapiens) (UniProt P40763); assay: Inhibition of STAT3 phosphorylation at Y705 residue in human MDA-MB-231 cells incubated for 2 hrs by Western blotting analysis; format: cell-based; conditions: dose 1-10 µM
[3] = tested on: MDA-MB-231; assay: Inhibition of colony formation in human MDA-MB-231 cells at 1 uM after 24 hrs followed by compound washout and subsequent incubation for 14 days by crystal violet staining based assay; format: functional, cell-based
[4] = tested on: SW480; assay: Antiproliferative activity against human SW480 cells assessed as inhibition of cell viability at 10 uM after 48 hrs by MTT assay relative to control; format: functional
[5] = tested on: MDA-MB-231; assay: Antiproliferative activity against human MDA-MB-231 cells assessed as inhibition of cell viability at 10 uM after 48 hrs by MTT assay relative to control; format: functional
[6] = tested on: HCT-116; assay: Antiproliferative activity against human HCT-116 cells assessed as inhibition of cell viability after 48 hrs by MTT assay; format: functional, cell-based; conditions: HCT-116, 48 h
[7] = target: Fibroblast growth factor receptor 2 (Homo sapiens) (UniProt P21802); assay: Inhibition of N-terminal GST-tagged FGFR2 (399 to 821 residues) (unknown origin) expressed in Sf21 cells at 10 uM preincubated for 10 mins followed by peptide substrate addition relative to control
[8] = target: Fibroblast growth factor receptor 1 (Homo sapiens) (UniProt P11362); assay: Inhibition of FGFR1 (398 to 822 residues) (unknown origin) expressed in Sf21 cells at 10 uM preincubated for 10 mins followed by peptide substrate addition relative to control
[9] = target: Hepatocyte growth factor receptor (Homo sapiens) (UniProt P08581); assay: Inhibition of MET (956 to 1390 residues) (unknown origin) expressed in Sf21 cells at 10 uM preincubated for 10 mins followed by peptide substrate addition relative to control
[10] = target: Wee1-like protein kinase (Homo sapiens) (UniProt P30291); assay: Inhibition of Wee1 (215 to 646 residues) (unknown origin) expressed in Sf21 at 10 uM preincubated for 10 mins followed by peptide substrate addition relative to control
[11] = tested on: MDA-MB-231; assay: Induction of apoptosis in human MDA-MB-231 cells assessed as decrease in Bcl-xl expression at 1 to 10 uM incubated for 24 hrs by Western blot analysis; format: functional, cell-based; conditions: dose 1-10 µM
[12] = tested on: MDA-MB-231; assay: Induction of apoptosis in human MDA-MB-231 cells assessed as apoptotic cells at 10 uM measured after 24 hrs by annexinV-FITC/propidium iodide staining based flow cytometry analysis (reference value: 2.49%); format: functional
[13] = tested on: MDA-MB-231; assay: Effect on total STAT3 expression in human MDA-MB-231 cells at 1 to 10 uM incubated for 2 hrs by Western blotting analysis; format: functional, cell-based; conditions: dose 1-10 µM
[14] = tested on: Epidermal growth factor receptor (Homo sapiens), P00533 [T790M]; assay: Inhibition of EGFR T790M mutant (669 to 1210 residues) (unknown origin) expressed in Sf21 cells at 10 uM preincubated for 10 mins followed by peptide substrate addition relative to control
[15] = target: Epidermal growth factor receptor (Homo sapiens) (UniProt P00533); assay: Inhibition of wild-type EGFR (669 to 1210 residues) (unknown origin) expressed in Sf21 cells at 10 uM preincubated for 10 mins followed by peptide substrate addition relative to control
[16] = Toxicity in BALB/c nude mouse xenografted with human MDA-MB-231 cells assessed as effect on body weight at 30 mg/kg, ig administered every two days; format: organism-based; conditions: in vivo, po
[17] = target: Mitogen-activated protein kinase 9 (Homo sapiens) (UniProt P45984); assay: Inhibition of N-terminal GST-tagged JNK2 (1 to 364 residues) (unknown origin) expressed in Escherichia coli at 10 uM preincubated for 10 mins followed by peptide substrate addition relative to control
[18] = target: Signal transducer and activator of transcription 1-alpha/beta (Homo sapiens) (UniProt P42224); assay: Inhibition of IL-6 induced STAT1 phosphorylation in human MDA-MB-231 cells at 1 to 10 uM preincubated for 2 hrs followed by IL-6 stimulation and measured after 45 mins by Western blotting analysis; format: cell-based; conditions: dose 1-10 µM, time 165.0 min
[19] = target: ALK tyrosine kinase receptor (Homo sapiens) (UniProt Q9UM73); assay: Inhibition of ALK (1058 to 1620 residues) (unknown origin) expressed in Sf21 cells at 10 uM preincubated for 10 mins followed by peptide substrate addition relative to control
[20] = target: Tyrosine-protein kinase JAK2 (Homo sapiens) (UniProt O60674); assay: Inhibition of JAK2 (826 to 1132 residues) (unknown origin) expressed in Sf21 cells at 10 uM preincubated for 10 mins followed by peptide substrate addition relative to control
[21] = target: Signal transducer and activator of transcription 3 (Homo sapiens) (UniProt P40763); assay: Inhibition of IL-6 induced STAT3 phosphorylation in human MDA-MB-231 cells at 5 uM incubated for 2 hrs by Western blotting analysis; format: cell-based
[22] = target: Mitogen-activated protein kinase 3 (Homo sapiens) (UniProt P27361); assay: Inhibition of N-terminal GST-tagged full length ERK1 (1 to 379 residues) (unknown origin) expressed in Escherichia coli at 10 uM preincubated for 10 mins followed by peptide substrate addition relative to control
[23] = tested on: L3.6pl; assay: Antiproliferative activity against human L3.6 cells assessed as inhibition of cell viability at 10 uM after 48 hrs by MTT assay relative to control; format: functional
[24] = target: Proto-oncogene tyrosine-protein kinase Src (Homo sapiens) (UniProt P12931); assay: Inhibition of full length SRC (1 to 536 residues) (unknown origin) expressed in Sf21 cells at 10 uM preincubated for 10 mins followed by peptide substrate addition relative to control
[25] = target: RAC-beta serine/threonine-protein kinase (Homo sapiens) (UniProt P31751); assay: Inhibition of human N-terminal His-tagged full length AKT2 expressed in Sf9 cells at 10 uM preincubated for 10 mins followed by peptide substrate addition relative to control
[26] = tested on: Epidermal growth factor receptor (Homo sapiens), P00533 [L858R]; assay: Inhibition of EGFR L858R mutant (669 to 1210 residues) (unknown origin) expressed in Sf21 cells at 10 uM preincubated for 10 mins followed by peptide substrate addition relative to control
[27] = target: Proto-oncogene tyrosine-protein kinase receptor Ret (Homo sapiens) (UniProt P07949); assay: Inhibition of RET (658 to 1114 residues) (unknown origin) expressed in Sf21 at 10 uM preincubated for 10 mins followed by peptide substrate addition relative to control
[28] = target: Inhibitor of nuclear factor kappa-B kinase subunit beta (Homo sapiens) (UniProt O14920); assay: Inhibition of IKKbeta (1 to 662 residues) (unknown origin) expressed in Sf21 cells at 10 uM preincubated for 10 mins followed by peptide substrate addition relative to control
[29] = tested on: MDA-MB-231; assay: Inhibition of human MDA-MB-231 cells migration after 24 hrs by crystal violet staining based transwell migration assay; format: functional, cell-based; conditions: dose 0.1-1 µM

Chain of Signal transducer and activator of transcription 3 (Homo sapiens) (P40763 whole entry, the tested form may be a part): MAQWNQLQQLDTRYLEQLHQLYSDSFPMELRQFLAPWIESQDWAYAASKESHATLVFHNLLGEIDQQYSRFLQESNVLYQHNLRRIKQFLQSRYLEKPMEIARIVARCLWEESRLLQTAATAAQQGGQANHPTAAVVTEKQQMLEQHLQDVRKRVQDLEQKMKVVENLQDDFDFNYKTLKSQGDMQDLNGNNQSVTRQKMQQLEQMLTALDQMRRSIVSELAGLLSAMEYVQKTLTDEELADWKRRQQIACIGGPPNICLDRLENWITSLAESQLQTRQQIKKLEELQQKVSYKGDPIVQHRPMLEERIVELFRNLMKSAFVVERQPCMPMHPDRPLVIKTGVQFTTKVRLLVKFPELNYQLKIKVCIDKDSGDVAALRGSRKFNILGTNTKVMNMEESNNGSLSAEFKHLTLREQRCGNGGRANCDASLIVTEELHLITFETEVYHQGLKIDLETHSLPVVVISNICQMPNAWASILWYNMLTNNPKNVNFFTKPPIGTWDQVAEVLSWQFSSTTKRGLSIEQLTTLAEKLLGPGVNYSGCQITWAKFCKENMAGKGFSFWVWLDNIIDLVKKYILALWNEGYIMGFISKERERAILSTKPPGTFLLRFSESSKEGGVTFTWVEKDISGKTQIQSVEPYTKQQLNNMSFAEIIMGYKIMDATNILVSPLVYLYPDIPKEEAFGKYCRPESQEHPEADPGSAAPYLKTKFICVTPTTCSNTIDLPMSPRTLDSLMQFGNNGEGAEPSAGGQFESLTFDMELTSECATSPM
Chain of Mitogen-activated protein kinase 3 (Homo sapiens) (P27361 whole entry, the tested form may be a part): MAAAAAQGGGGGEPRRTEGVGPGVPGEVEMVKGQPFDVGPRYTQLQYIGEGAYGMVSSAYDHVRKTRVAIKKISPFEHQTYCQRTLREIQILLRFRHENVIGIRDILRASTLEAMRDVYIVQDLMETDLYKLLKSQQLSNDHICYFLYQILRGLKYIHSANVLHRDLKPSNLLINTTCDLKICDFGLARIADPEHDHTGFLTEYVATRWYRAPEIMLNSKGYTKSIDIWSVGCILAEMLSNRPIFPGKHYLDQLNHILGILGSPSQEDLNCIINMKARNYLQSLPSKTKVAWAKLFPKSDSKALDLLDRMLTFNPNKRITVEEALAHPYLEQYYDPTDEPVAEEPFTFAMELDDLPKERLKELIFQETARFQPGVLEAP
Chain of Proto-oncogene tyrosine-protein kinase receptor Ret (Homo sapiens) (P07949 whole entry, the tested form may be a part): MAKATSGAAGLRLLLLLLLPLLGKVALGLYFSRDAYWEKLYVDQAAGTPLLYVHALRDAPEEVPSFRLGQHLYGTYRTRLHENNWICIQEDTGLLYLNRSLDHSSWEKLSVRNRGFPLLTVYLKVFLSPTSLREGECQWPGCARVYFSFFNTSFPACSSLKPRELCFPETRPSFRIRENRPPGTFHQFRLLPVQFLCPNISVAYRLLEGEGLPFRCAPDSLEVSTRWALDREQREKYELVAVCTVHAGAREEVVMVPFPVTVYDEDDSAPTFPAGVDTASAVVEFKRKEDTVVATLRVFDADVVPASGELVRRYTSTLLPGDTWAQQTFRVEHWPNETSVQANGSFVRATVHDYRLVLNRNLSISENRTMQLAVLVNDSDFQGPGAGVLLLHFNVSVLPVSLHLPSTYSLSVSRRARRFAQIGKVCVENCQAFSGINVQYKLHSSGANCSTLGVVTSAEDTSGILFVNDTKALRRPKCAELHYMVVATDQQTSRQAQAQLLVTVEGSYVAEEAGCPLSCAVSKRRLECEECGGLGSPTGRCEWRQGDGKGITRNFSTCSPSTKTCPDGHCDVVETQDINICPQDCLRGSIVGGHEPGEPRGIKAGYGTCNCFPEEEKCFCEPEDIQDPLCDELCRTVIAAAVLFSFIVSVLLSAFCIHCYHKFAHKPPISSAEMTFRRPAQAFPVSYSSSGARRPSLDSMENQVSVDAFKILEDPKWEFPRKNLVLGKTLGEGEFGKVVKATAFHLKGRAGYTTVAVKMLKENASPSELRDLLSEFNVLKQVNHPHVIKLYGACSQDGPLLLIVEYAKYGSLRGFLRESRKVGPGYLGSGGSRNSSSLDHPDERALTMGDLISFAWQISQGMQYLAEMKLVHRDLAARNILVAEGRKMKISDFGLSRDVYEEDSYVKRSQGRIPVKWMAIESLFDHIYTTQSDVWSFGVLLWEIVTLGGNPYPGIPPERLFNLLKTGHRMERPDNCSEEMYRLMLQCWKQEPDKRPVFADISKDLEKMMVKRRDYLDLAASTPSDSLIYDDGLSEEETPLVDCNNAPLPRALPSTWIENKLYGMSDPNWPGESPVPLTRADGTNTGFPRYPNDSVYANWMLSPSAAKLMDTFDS
Chain of Fibroblast growth factor receptor 1 (Homo sapiens) (P11362 22-822 limits assumed): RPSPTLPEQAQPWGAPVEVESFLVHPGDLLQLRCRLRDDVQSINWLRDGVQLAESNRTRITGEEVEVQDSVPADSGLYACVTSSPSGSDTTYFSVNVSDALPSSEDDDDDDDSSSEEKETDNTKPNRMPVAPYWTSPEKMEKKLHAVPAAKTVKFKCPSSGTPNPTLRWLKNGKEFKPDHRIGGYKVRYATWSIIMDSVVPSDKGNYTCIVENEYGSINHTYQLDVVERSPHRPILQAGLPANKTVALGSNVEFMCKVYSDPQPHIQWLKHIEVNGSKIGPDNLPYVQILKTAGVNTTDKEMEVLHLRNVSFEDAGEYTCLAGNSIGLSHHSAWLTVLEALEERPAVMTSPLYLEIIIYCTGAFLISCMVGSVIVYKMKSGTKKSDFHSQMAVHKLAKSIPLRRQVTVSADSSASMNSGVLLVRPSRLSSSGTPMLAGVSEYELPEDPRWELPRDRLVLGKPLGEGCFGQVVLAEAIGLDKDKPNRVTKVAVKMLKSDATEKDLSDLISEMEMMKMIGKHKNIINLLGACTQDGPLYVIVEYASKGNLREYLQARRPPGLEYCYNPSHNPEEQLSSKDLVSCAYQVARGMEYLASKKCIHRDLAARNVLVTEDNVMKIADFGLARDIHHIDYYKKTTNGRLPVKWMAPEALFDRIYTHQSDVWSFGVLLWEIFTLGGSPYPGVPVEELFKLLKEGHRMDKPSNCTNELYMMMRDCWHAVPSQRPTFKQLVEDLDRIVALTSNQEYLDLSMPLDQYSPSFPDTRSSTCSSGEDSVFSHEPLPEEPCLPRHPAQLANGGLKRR
Chain of Hepatocyte growth factor receptor (Homo sapiens) (P08581 whole entry, the tested form may be a part): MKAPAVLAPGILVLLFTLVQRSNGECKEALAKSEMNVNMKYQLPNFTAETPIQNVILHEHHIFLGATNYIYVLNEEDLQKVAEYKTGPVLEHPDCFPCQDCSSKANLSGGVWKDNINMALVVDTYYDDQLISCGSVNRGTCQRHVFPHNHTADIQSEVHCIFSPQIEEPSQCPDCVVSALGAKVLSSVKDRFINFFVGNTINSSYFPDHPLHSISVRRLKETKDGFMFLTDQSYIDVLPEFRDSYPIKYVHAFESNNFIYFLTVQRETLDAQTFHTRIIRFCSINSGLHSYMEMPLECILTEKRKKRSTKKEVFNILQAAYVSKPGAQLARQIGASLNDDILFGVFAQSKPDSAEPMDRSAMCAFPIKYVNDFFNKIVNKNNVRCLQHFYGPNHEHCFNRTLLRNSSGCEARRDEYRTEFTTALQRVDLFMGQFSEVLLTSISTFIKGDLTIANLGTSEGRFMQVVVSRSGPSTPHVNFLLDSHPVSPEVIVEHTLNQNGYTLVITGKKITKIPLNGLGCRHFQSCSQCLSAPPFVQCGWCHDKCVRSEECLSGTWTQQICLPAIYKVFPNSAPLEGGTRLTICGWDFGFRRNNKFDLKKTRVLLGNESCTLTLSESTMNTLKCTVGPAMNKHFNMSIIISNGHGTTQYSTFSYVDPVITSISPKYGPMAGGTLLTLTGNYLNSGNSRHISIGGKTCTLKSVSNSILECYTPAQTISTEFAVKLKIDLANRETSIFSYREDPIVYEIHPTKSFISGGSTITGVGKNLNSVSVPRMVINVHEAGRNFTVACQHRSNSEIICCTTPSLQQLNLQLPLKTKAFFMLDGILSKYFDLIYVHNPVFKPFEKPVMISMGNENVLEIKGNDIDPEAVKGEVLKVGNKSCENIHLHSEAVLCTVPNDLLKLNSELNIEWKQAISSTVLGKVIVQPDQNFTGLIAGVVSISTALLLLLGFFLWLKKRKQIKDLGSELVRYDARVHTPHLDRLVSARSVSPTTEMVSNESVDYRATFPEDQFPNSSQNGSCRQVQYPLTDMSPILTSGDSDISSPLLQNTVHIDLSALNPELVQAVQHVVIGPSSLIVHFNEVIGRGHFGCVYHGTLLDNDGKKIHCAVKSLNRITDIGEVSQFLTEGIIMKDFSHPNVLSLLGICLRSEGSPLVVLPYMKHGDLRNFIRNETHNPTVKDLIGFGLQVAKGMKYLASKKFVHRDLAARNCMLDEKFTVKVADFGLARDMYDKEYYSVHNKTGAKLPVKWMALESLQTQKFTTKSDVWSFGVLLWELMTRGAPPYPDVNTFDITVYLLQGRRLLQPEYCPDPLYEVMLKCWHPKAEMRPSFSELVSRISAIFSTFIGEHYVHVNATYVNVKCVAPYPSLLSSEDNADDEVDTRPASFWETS
Chain of Wee1-like protein kinase (Homo sapiens) (P30291 whole entry, looked up, the tested form may be a part): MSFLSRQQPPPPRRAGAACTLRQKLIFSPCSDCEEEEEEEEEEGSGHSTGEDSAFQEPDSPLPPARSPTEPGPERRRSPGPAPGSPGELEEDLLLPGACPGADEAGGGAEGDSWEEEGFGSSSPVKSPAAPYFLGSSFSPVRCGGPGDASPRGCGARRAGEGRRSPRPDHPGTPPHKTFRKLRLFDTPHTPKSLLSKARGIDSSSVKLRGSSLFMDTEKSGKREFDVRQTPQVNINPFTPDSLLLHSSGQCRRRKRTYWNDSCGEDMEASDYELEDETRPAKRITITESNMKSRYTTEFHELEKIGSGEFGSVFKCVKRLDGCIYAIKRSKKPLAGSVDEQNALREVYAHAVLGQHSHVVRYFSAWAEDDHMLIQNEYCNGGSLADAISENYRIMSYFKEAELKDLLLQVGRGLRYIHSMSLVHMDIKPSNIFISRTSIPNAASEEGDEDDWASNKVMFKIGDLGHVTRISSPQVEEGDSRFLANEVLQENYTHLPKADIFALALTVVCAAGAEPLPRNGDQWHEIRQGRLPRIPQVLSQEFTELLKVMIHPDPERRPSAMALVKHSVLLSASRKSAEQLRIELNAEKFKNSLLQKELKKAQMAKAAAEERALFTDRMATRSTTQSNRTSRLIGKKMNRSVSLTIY

CC(C)(C)OC(=O)c1ccc(NC(=O)c2ccc(Cl)c(S(N)(=O)=O)c2)cc1
IC50 [1]: 610 nM
inhibition [2]: Dose-Dependent Effect
inhibition [3]: Active
inhibition at 10 µM [4]: 80.9%
inhibition at 10 µM [5]: 93%
IC50 [6]: 690 nM
inhibition [7]: 5.28%
inhibition [8]: 3.58%
inhibition [9]: 0.13%
inhibition [10]: 4.76%
Activity [11]: Active
Activity [12]: 25.63%
inhibition [13]: Active
inhibition [14]: 2.23%
inhibition [15]: 4.41%
Activity [16]: Non-Toxic
inhibition [17]: 4.16%
inhibition [18]: inactive
inhibition [19]: 5.19%
inhibition [20]: 4.77%
inhibition [21]: 100%
inhibition [22]: 1.72%
inhibition at 10 µM [23]: 21.9%
inhibition [24]: 1.42%
inhibition [25]: 3.38%
inhibition [26]: 4.82%
inhibition [27]: -7.23%
inhibition [28]: 2.87%
inhibition [29]: Dose-Dependent Effect
